This passage reports melting point results from patent US7772271B2 (priority 2004, dated 2010).

As to `CCCS(=O)(=O)Nc1cc(C)c(-c2c(C#N)c3ccc(Oc4ncccc4C#N)cc3n2C2CCC2)cc1C` [Compound 3335], the melting point lay within 227 to 230 °C.

As to `CCCS(=O)(=O)Nc1cc(C)c(-c2c(C#N)c3ccc(Oc4nccnc4C#N)cc3n2C2CCC2)cc1C` [Compound 3336], the melting point was in the range of 257 to 259 °C.

In the case of `Cc1cccn(-c2ccc3c(C#N)c(-c4ccc(NC(=O)O[C@H](C)C5CC5)cc4)n(C4CCC4)c3c2)c1=O` [Compound 3338], the melting point was in the range of 280 to 281 °C.

`Cc1cccn(-c2ccc3c(C#N)c(-c4ccc(NC(=O)OC(C)C)cc4)n(C4CCC4)c3c2)c1=O` [Compound 3339] yielded a melting point of 284 to 285 °C.

Turning to `Cc1cccn(-c2ccc3c(C#N)c(-c4ccc(NS(=O)(=O)CC(C)C)cc4)n(C4CCC4)c3c2)c1=O` [Compound 3340], the melting point is 290 to 291 °C.

`Cc1cccn(-c2ccc3c(C#N)c(-c4ccc(NC(=O)O[C@H](C)C(F)(F)F)cc4)n(C4CCC4)c3c2)c1=O` [Compound 3341] registered a melting point of 265 to 266 °C.

In turn, `Cc1cccn(-c2ccc3c(C#N)c(-c4ccc(NC(=O)NC(C)C)cc4)n(C4CCC4)c3c2)c1=O` [Compound 3342] registered a melting point of 266 to 267.5 °C.

The compound `CCCS(=O)(=O)Nc1ccc(-c2c(C#N)c3ccc(Oc4ncccc4C#N)cc3n2C2CCC2)c(OC)c1` [Compound 3344] had a melting point of 227 to 230 °C.

Compound `CCCS(=O)(=O)Nc1ccc(-c2c(C#N)c3ccc(Oc4ncccc4C#N)cc3n2C2CCC2)c(F)c1` [Compound 3346] showed a melting point of 113 to 116 °C.

Regarding `N#Cc1c(-c2ccc(NC3CCC3)nc2)n(C2CCC2)c2cc(Oc3ncccn3)ccc12` [Compound 3348], the melting point is 229 to 231 °C.

In turn, `CCn1c(-c2ccc3c(ccn3S(C)(=O)=O)c2)c(C#N)c2ccc(OC)cc21` [compound 1330, 1-ethyl-1′-methanesulfonyl-6-methoxy-1H,1′H-[2,5′]biindolyl-3-carbonitrile] displayed a melting point of 148 to 151 °C.

On to `CCn1c(-c2ccc3c(ccn3S(=O)(=O)CC)c2)c(C#N)c2ccc(OC)cc21` [compound 1331], for which the melting point lay in the range of 157 to 160 °C.

In the case of `CS(=O)(=O)Nc1ccc(-c2c(C#N)c3ccc(OC(F)F)cc3n2CC2CCCO2)cc1` (centres unmarked) [compound 1334, N-{4-[3-cyano-6-difluoromethoxy-1-(tetrahydro-furan-2-ylmethyl)-1H-indole-2-yl]-phenyl}-methanesulfonamide], the melting point lay in the range of 87 to 88 °C.

`CCOc1ccc(-c2c(C#N)c3ccc(N4CCN(C(=O)OC(C)(C)C)CC4)cc3n2CC)cc1` [compound 1337, 4-[3-cyano-2-(4-ethoxyphenyl)-1-ethylindol-6-yl]piperazine-1-carboxylic acid tert-butyl ester] had a melting point of 183 to 184 °C.

`CCOC(=O)Nc1ccc(-c2c(C#N)c3ccc(N4CCN(C)CC4)cc3n2CC)cc1` [compound 1339] came in with a melting point of 177 to 178 °C.

With `CCC(=O)Nc1ccc(-c2c(C#N)c3ccc(N4CCN(C)CC4)cc3n2CC)cc1` [compound 1341, N-{4-[3-cyano-1-ethyl-6-(4-methylpiperazin-1-yl)-indol-2-yl]phenyl}propionamide], the melting point is 170 to 171 °C.

Turning to `CCN(CC)c1nc2ccc(-c3c(C#N)c4ccc(OC)cc4n3CC)cc2s1` [compound 1343, 2-(2-Diethylaminobenzothiazol-6-yl)-1-ethyl-6-methoxy-1H-indole-3-carbonitrile], the melting point was 155 to 158 °C.

`CCOc1ccc2c(C#N)c(-c3ccc(N4CCCOC4=O)cc3)n(C3CCC3)c2c1` [compound 1346, 1-cyclobutyl-6-ethoxy-2-[4-(2-oxo-[1,3]oxazinan-3-yl)-phenyl]-1H-indole-3-carbonitrile]: the melting point lay in the range of 226 to 228 °C.

With `CCOC(=O)Nc1ccc(-c2c(C#N)c3ccc(OCCOC)cc3n2C2CCC2)cc1` [compound 1397, {4-[3-cyano-1-cyclobutyl-6-(2-methoxy-ethoxy)-1H-indole-2-yl]-phenyl}-carbamic acid ethyl ester], the melting point is 170 to 171 °C.

In the case of `CCOc1ccc2c(C#N)c(-c3ccc(NC(=O)NCCO)cc3)n(C3CCC3)c2c1` [compound 1408, 1-[4-(3-cyano-1-cyclobutyl-6-ethoxy-1H-indol-2-yl)-phenyl]-3-(2-hydroxy-ethyl)-urea], the melting point fell in the range of 199 to 203 °C.

`CC(C)OC(=O)Nc1ccc(-c2c(C#N)c3ccc(OCC(O)Cn4cncn4)cc3n2C2CCC2)cc1` (centres unmarked) [compound 1420, {4-[3-Cyano-1-cyclobutyl-6-(2-hydroxy-3-[1,2,4]triazol-1-yl-propoxy)-1H-indol-2-yl]-phenyl}-carbamic acid isopropyl ester] came in with a melting point of 209 to 215 °C.

Turning to `COCCOc1ccc2c(C#N)c(-c3ccc(NC(=O)OC(C)C4CC4)cc3)n(C3CCC3)c2c1` (centres unmarked) [compound 1423, [4-(3-cyano-1-cyclobutyl-6-(2-methoxyethoxy)-1H-indol-2-yl)-phenyl]-carbamic acid 1-cyclopropyl-ethyl ester], the melting point lay in the range of 192 to 193 °C.

`CCOc1ccc2c(C#N)c(-c3ccc(NC(=O)OCCOCCOC)cc3)n(C3CCC3)c2c1` [compound 1424, [4-(3-cyano-1-cyclobutyl-6-ethoxy-1H-indol-2-yl)-phenyl]-carbamic acid 2-(2-methoxyethoxy)-ethyl ester]: the melting point is 65 to 72 °C.

`CCOc1ccc2c(C#N)c(-c3ccc(N(CC)C(=O)NC4CCCC4)cc3)n(C3CCC3)c2c1` [compound 1425, 1-[4-(3-cyano-1-cyclobutyl-6-ethoxy-1H-indol-2-yl)-phenyl]-3-cyclopenyl-1-ethyl-urea] returned a melting point of 153 to 160 °C.

As to `CC(C)OC(=O)Nc1ccc(-c2c(C#N)c3ccc(OCCC4COC(C)(C)O4)cc3n2C2CCC2)cc1` (centres unmarked) [compound 1428, (4-{3-cyano-1-cyclobutyl-6-[2-(2,2-dimethyl-[1,3]dioxolan-4-yl)-ethoxy]-1H-indol-2-yl}-phenyl)-carbamic acid isopropyl ester], the melting point was in the range of 141 to 145 °C.

`CC(C)OC(=O)Nc1ccc(-c2c(C#N)c3ccc(OCCC(O)CO)cc3n2C2CCC2)cc1` (centres unmarked) [compound 1429, {4-[3-cyano-1-cyclobutyl-6-(3,4-dihydroxy-butoxy)-1H-indol-2-yl]-phenyl}-carbamic acid isopropyl ester] showed a melting point of 132 to 134 °C.

For `CCOc1ccc2c(C#N)c(-c3ccc(NCCc4ccccn4)cc3)n(C3CCC3)c2c1` [compound 1433, 1-cyclobutyl-6-ethoxy-2-[4-(2-pyridin-2-yl-ethylamino)-phenyl]-1H-indole-3-carbonitrile], the melting point was 153 to 156 °C.

The compound `CC(OC(=O)Nc1ccc(-c2c(C#N)c3ccc(OC4CCCO4)cc3n2C2CC2)cc1)C1CC1` (centres unmarked) [compound 1444, {4-[3-cyano-1-cyclopropyl-6-(tetrahydrofuran-2-yloxy)indol-2-yl]phenyl}carbamic acid 1-cyclopropylethyl ester] came in with a melting point of 189 to 191 °C.

`CC(C)OC(=O)Nc1ccc(-c2c(C#N)c3ccc(OC4CCOCC4)cc3n2C2CCC2)cc1` [compound 2616, {4-[3-cyano-1-cyclobutyl-6-(tetrahydro-pyran-4-yloxy)-1H-indole-2-yl]-phenyl}-carbamic acid isopropyl ester]: the melting point lay in the range of 197 to 199 °C.
